Here are results for two molecules from patent EP0876144B1, “THERAPEUTIC ANTI-ASTHMA AGENTS CONTAINING EBSELEN” (A. Nattermann & Cie. GmbH, priority 1996, dated 1997).

Entries after “also recorded” stand apart in the source; their conditions may differ. A value given as a limit tells only on which side of the number the result lay.

For data set [1], the system named is Meerschweinchen, die ein Antigen induziertes Asthma besitzen. Put plainly: antigen (ovalbumin)-induced asthma in conscious, spontaneously breathing guinea pigs; lung function (sGaw) by body plethysmograph. It counts as in vivo, Hartley Meerschweinchen. The following applies: for Bereiche der Unterdrückung der unmittelbaren asthmatischen Reaktionen: comparison of Ebselen group (5 mg/kg i.p.) with Dexamethason group (1 mg/kg i.p., 4 days). On the procedure:
Die Wirksamkeiten von Ebselen wurden unter Verwendung von Meerschweinchen, die ein Antigen induziertes Asthma besitzen, durch Überprüfung der Lungenfunktionen unter Bewußtsein und spontaner Atmung getestet.
Jedes der weiblichen Hartley Meerschweinchen (SLC) (4 Wochen alt, Körpergewicht etwa 250 bis 300 g) wurden vorbehandelt mit Cyclophosmid (2 mg/kg). Nach zwei Tagen wurden intraperitoneal Ovalbumin (OA, 1 mg) und Aluminiumgel (1 g) injiziert. Drei Wochen später wurden wiederum OA (0,1 mg) und Aluminiumgel (1 g) intraperitoneal injiziert. Die so behandelten Meerschweinchen wurden als sensibilisierte Tiere benutzt. Zu diesem Testzeitpunkt waren die Meerschweinchen elf Wochen alt und hatten ein Körpergewicht von 450 bis 580 g.
Körper-Pressmograph, Drucktyp • Pulmotacograph (TP-601G, Nippon Kodensha) • Differentialmeßwandler (T-601, Nippon Kodensha) • Gasflußwiderstandsrohr (Lilly type, Nippon Kodensha) • Oszilloskop (DS-9121, Iwasaki Tsushinki) • Computer (Macintosh Centris 660 AV, Apple) • Software (zur Analyse der Atmung basierend auf LabView für Macintosh 3.01) • Zerstäuber (NE-U10, Tateishi Denki)
Dexamethason (1 mg/kg) wurde in 100 % DMSO (1 ml) gelöst. Diese Lösung wurde während vier aufeinander folgende Tage intraperitoneal injiziert. Die letzte intraperitoneale Injektion wurde 24 Stunden vor der Induzierung der Antigene durchgeführt.
Gruppe der mit Ebselen vorbehandelten Meerschweinchen Ebselen (5 mg/kg) wurde in 100 % DMSO (1 ml) gelöst. Diese Lösung wurde intraperitoneal 30 Minuten vor der Induzierung der Antigene injiziert.
100 % DMSO (1 ml) wurde intraperitoneal 30 Minuten vor der Induzierung der Antigene injiziert.
OA (40 mg) wurde in einer physiologischen Salzlösung (4 mg/ml) gelöst. Diese Lösung wurde 2 Minuten lang unter Verwendung eines Ultraschallzerstäubers inhaliert.
In Übereinstimmung mit dem Verfahren von Agrawal (Agrawal, K. P.; Specific Airway Conductance in Guinea Pigs: "Normal Values and Histamine Induced Fall", Respiratory Physiology 43:23, 1981) wurde jedes Meerschweinchen auf einem Körper-Pressmograph, Drucktyp, fixiert und die prozentuale Variation des spezifischen Luftweg-Leitwertes (sGaw) wurde gemessen. Der Luftfluß durch die Nase und die Änderung des Innendruckes der Box wurden aufgezeichnet. Die entsprechenden Wellenformen' wurden digital bei 1.024 Hz gesammelt und die Punkte vom Ende des Ausatmens bis zum Beginn des Einatmens wurden als rückläufige Linie aufgezeichnet. Unter Verwendung der Neigung (tan) der rückläufigen Linie wurde der sGaw erhalten. Der sGaw-Wert wurde vor der Induzierung der Antigene gemessen. Nachdem eine physiologische Salzlösung für zwei Minuten inhaliert wurde, wurde der sGaw nochmals gemessen, um sicherzustellen, daß sich keine Daten geändert hatten. […]

The nature of data set [2]: acute toxicity test (LD50) in mice. Conditions: mouse, in vivo, Maus. From the text:
(§1) Darüber hinaus konnte gefunden werden, daß Ebselen sehr sicher ist, wie dies durch die nachfolgenden und in der Tabelle 1 wiedergegebenen LD50-Werte bewiesen wird, wobei diese Werte das Ergebnis eines Toxizitätstests unter Verwendung von Mäusen und Ratten, denen diese Verbindungen oral oder intraperitoneal verabreicht wurden, darstellen. Selbst dann, wenn diese Verbindungen in hohen Dosen verabreicht werden, zeigen sie keine Nebeneffekte, die ernsthafte Probleme verursachen. Tabelle 1

The next data set relates to Lipoxygenase. Conditions: Peter Kuhl et al, Prostaglandins, 31 (1986), 1029-1048; cited from earlier work.
Data set [3] can be described thus: acute toxicity test (LD50) in rats. The following applies: rat, in vivo, Ratte.
Description: as §1

Usually LD50 stands for the dose at which mortality reaches 50%. Low readings indicate greater toxicity, high ones lower toxicity.

`O=c1c2ccccc2[se]n1-c1ccccc1` [Ebselen, 2-Phenyl-1,2-Benzoisoselenazole-3(2H)-one]: the “Unterdrückung der unmittelbaren asthmatischen Reaktionen (sGaw)” value in data set [1] (Ebselen 5 mg/kg i.p. 30 min before antigen challenge, compared with control group (DMSO)) is listed as “wirkungsvoller unterdrückt”. Also, in data set [1] (Ebselen 5 mg/kg i.p. 30 min before antigen challenge, compared with control group (late reactions at 180 to 420 min in controls)), the “Unterdrückung der späten asthmatischen Reaktionen (sGaw)” value was “wirkungsvoller unterdrückt; also recorded: erheblich und vollständig unterdrückt”. Besides, the “Bereiche der Unterdrückung der unmittelbaren asthmatischen Reaktionen” value in data set [1] was “überwiegend gleich”. For the same molecule, the 50% lethal dose (LD50) in data set [2] (ip) was 740 mg/kg; in data set [2] (po), above 6810 mg/kg; in data set [3] (ip), 580 mg/kg; in data set [3] (po), above 6810 mg/kg. The “Lipoxygenase inhibierende Wirkung” value with Lipoxygenase is recorded as “deutliche Lipoxygenase inhibierende Wirkung”.

As to `C[C@@H]1C[C@H]2[C@@H]3CCC4=CC(=O)C=C[C@]4(C)[C@@]3(F)[C@@H](O)C[C@]2(C)[C@@]1(O)C(=O)CO` [Dexamethason, reference compound], the “Bereiche der Unterdrückung der unmittelbaren asthmatischen Reaktionen” value in data set [1] is given as “überwiegend gleich”.
